Experimental data published in ChEMBL document CHEMBL1201862, “PubChem BioAssay data set” (2004).
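Test compounds were applied to cells in 96-well plates for 48 hours at 5 doses. Abbreviation: GI50, concentration required for 50% inhibition of growth.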 Active and inactive are the calls of the source. Rule as the data show it: active = GI50 up to about 1.1 µM and inactive = higher.

Key:
Experiment in all cases: inhibition of tumour cell growth, NCI panel, 48 h
[1] = system: 786-0
[2] = system: A549
[3] = system: ACHN
[4] = system: HOP-62
[5] = system: KM-20L2
[6] = system: LOX IMVI
[7] = system: NCI-H226
[8] = system: NCI-H23
[9] = system: OVCAR-3
[10] = system: OVCAR-4
[11] = system: OVCAR-5
[12] = system: RPMI-8226
[13] = system: SNB-19
[14] = system: SNB-75
[15] = system: SR
[16] = system: TK-10
[17] = system: UO-31
[18] = system: BT-549
[19] = system: PC-3

SMILES	GI50 [1]	GI50 [2]	GI50 [3]	GI50 [4]	GI50 [5]	GI50 [6]	GI50 [7]	GI50 [8]	GI50 [9]	GI50 [10]	GI50 [11]	GI50 [12]	GI50 [13]	GI50 [14]	GI50 [15]	GI50 [16]	GI50 [17]	GI50 [18]	GI50 [19]
CC(=O)OC12CCCCC1C1(CCCC1)NC2=O (centres undefined)	> 100 µM (inactive)	> 100 µM (inactive)	> 100 µM (inactive)	> 100 µM (inactive)	> 100 µM (inactive)	> 100 µM (inactive)	> 100 µM (inactive)	> 100 µM (inactive)	> 100 µM (inactive)	> 100 µM (inactive)	> 100 µM (inactive)	> 100 µM (inactive)	> 100 µM (inactive)	> 100 µM (inactive)	> 100 µM (inactive)	> 100 µM (inactive)	> 100 µM (inactive)	–	–
CC1(C)OCN(c2ccc(N3CCOCC3)cc2)Cn2c1nc1ccccc12	> 100 µM (inactive)	> 100 µM (inactive)	64 µM (inactive)	> 100 µM (inactive)	> 100 µM (inactive)	31.8 µM (inactive)	55.3 µM (inactive)	> 100 µM (inactive)	> 100 µM (inactive)	29.6 µM (inactive)	–	27.9 µM (inactive)	> 100 µM (inactive)	> 100 µM (inactive)	31.2 µM (inactive)	> 100 µM (inactive)	> 100 µM (inactive)	–	–
Cc1ccc(NC(=O)C(=O)C2NC(=S)NC2=O)c([N+](=O)[O-])c1 (centres undefined)	> 100 µM (inactive)	> 100 µM (inactive)	> 100 µM (inactive)	> 100 µM (inactive)	> 100 µM (inactive)	> 100 µM (inactive)	> 100 µM (inactive)	> 100 µM (inactive)	> 100 µM (inactive)	> 100 µM (inactive)	> 100 µM (inactive)	> 100 µM (inactive)	> 100 µM (inactive)	> 100 µM (inactive)	> 100 µM (inactive)	> 100 µM (inactive)	> 100 µM (inactive)	–	–
CC(=O)c1cc2c3c(c1)c1cc4c(cc1c(=O)n3CC2)OCO4	13.4 µM (inactive)	40.1 µM (inactive)	16.9 µM (inactive)	44.5 µM (inactive)	23.7 µM (inactive)	13.9 µM (inactive)	> 100 µM (inactive)	75.5 µM (inactive)	33.8 µM (inactive)	25.8 µM (inactive)	78.7 µM (inactive)	17.6 µM (inactive)	28.5 µM (inactive)	34.4 µM (inactive)	4.32 µM (inactive)	21.2 µM (inactive)	8.11 µM (inactive)	–	–
NS(=O)(=O)c1ccc(NC(=O)c2cccc3c(=O)c4ccccc4[nH]c23)cc1	> 100 µM (inactive)	> 100 µM (inactive)	> 100 µM (inactive)	39.8 µM (inactive)	38.6 µM (inactive)	20.7 µM (inactive)	23.4 µM (inactive)	67.3 µM (inactive)	> 100 µM (inactive)	29.6 µM (inactive)	> 100 µM (inactive)	28.4 µM (inactive)	76.4 µM (inactive)	15.3 µM (inactive)	22 µM (inactive)	89.1 µM (inactive)	18.6 µM (inactive)	–	–
CC1(Cl)C(=O)NC(=O)N([C@H]2C[C@H](O)[C@@H](CO)O2)C1N=[N+]=[N-] (some centres undefined)	> 100 µM (inactive)	> 100 µM (inactive)	> 100 µM (inactive)	> 100 µM (inactive)	> 100 µM (inactive)	> 100 µM (inactive)	> 100 µM (inactive)	> 100 µM (inactive)	> 100 µM (inactive)	> 96.2 µM (inactive)	> 100 µM (inactive)	> 100 µM (inactive)	> 100 µM (inactive)	> 100 µM (inactive)	> 100 µM (inactive)	> 100 µM (inactive)	> 100 µM (inactive)	–	–
CCN(CC)CCC(=O)Nc1ccc2c(c1)C(=O)c1ccc(NC(=O)CCN(CC)CC)cc1C2=O	2.15 µM (inactive)	5.18 µM (inactive)	4.07 µM (inactive)	5.37 µM (inactive)	14.6 µM (inactive)	2.19 µM (inactive)	0.308 µM (active)	8.2 µM (inactive)	–	4.63 µM (inactive)	11.2 µM (inactive)	4.17 µM (inactive)	5.48 µM (inactive)	14.2 µM (inactive)	3.37 µM (inactive)	5.01 µM (inactive)	84.1 µM (inactive)	–	–
C=C1C(=O)C23C(O)C1CC[C@H]2C12CCCC(C)(COC(C)=O)[C@H]1[C@H](O)[C@]3(O)OC2 (some centres undefined)	0.966 µM (active)	3.94 µM (inactive)	1.51 µM (inactive)	3.09 µM (inactive)	1.56 µM (inactive)	1.52 µM (inactive)	2.44 µM (inactive)	1.87 µM (inactive)	1.61 µM (inactive)	2.15 µM (inactive)	2.36 µM (inactive)	0.318 µM (active)	3.44 µM (inactive)	1.53 µM (inactive)	–	1.63 µM (inactive)	1.77 µM (inactive)	1.48 µM (inactive)	1.88 µM (inactive)
O=C(/C(=C/c1ccccc1)c1ccccc1)N1c2ccccc2CC1c1c[nH]c2ccccc12 (centres undefined)	> 100 µM (inactive)	11 µM (inactive)	16.9 µM (inactive)	> 100 µM (inactive)	26.8 µM (inactive)	21.6 µM (inactive)	41.1 µM (inactive)	15 µM (inactive)	3.05 µM (inactive)	37.8 µM (inactive)	38.6 µM (inactive)	15.6 µM (inactive)	23.7 µM (inactive)	> 100 µM (inactive)	> 100 µM (inactive)	45.7 µM (inactive)	5.11 µM (inactive)	–	–
CC(C)[C@@H]1C=C(c2ccccc2)c2ccccc2C1C(C#N)(C#N)C(C)C (some centres undefined)	> 100 µM (inactive)	79.4 µM (inactive)	> 100 µM (inactive)	> 100 µM (inactive)	> 100 µM (inactive)	> 100 µM (inactive)	> 100 µM (inactive)	76 µM (inactive)	78.9 µM (inactive)	82.4 µM (inactive)	> 100 µM (inactive)	19 µM (inactive)	> 100 µM (inactive)	> 100 µM (inactive)	46.3 µM (inactive)	> 100 µM (inactive)	> 100 µM (inactive)	–	–
C/C(CN1C(=O)c2ccccc2C1=O)=N\NS(=O)(=O)c1ccc(Cl)cc1	> 100 µM (inactive)	> 100 µM (inactive)	> 100 µM (inactive)	> 100 µM (inactive)	> 100 µM (inactive)	–	> 100 µM (inactive)	> 100 µM (inactive)	> 100 µM (inactive)	> 100 µM (inactive)	> 100 µM (inactive)	> 100 µM (inactive)	> 100 µM (inactive)	> 100 µM (inactive)	> 100 µM (inactive)	> 100 µM (inactive)	> 100 µM (inactive)	–	–
FC(F)(F)c1nc2ccc3[nH]c4c(-c5ccccc5)nccc4c3c2[nH]1	> 100 µM (inactive)	> 100 µM (inactive)	> 100 µM (inactive)	> 100 µM (inactive)	> 100 µM (inactive)	> 46.8 µM (inactive)	> 100 µM (inactive)	> 100 µM (inactive)	> 100 µM (inactive)	> 100 µM (inactive)	> 100 µM (inactive)	> 42.9 µM (inactive)	> 100 µM (inactive)	> 100 µM (inactive)	17.9 µM (inactive)	> 100 µM (inactive)	> 100 µM (inactive)	–	–
O=C(O/N=C1/CCCC/C1=C\c1ccccc1)c1ccc(Cl)cc1	> 100 µM (inactive)	> 100 µM (inactive)	> 100 µM (inactive)	> 100 µM (inactive)	> 100 µM (inactive)	57.8 µM (inactive)	> 100 µM (inactive)	> 100 µM (inactive)	> 100 µM (inactive)	53 µM (inactive)	44.8 µM (inactive)	> 100 µM (inactive)	> 100 µM (inactive)	88.7 µM (inactive)	56.6 µM (inactive)	> 100 µM (inactive)	> 100 µM (inactive)	–	–
